System: NOMO1
Assay: cell viability relative to DMSO control; higher = less cytotoxic
Conditions: 48 h
Method in brief: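 In 1536-well plates, 5 μl of leukemia cells were seeded per well: 500 cells/well for NOMO1 or SEM and 1000 cells/well for P12-Ichikawa. Each line had first been adapted for at least four passages in each medium. Library compounds in DMSO were pin-dosed at 11 threefold concentrations between 47 μM and 0.79 nM, and CellTiter-Glo One luminescence was read after 48 h at 37°C. Viability is a per-plate percentage relative to DMSO wells, with cell-free wells as background.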

[1] = HPLM + 10% dialyzed FBS, 0.000781 µM
[2] = HPLM + 10% dialyzed FBS, 0.00234 µM
[3] = HPLM + 10% dialyzed FBS, 0.00702 µM
[4] = HPLM + 10% dialyzed FBS, 0.0211 µM
[5] = HPLM + 10% dialyzed FBS, 0.0632 µM
[6] = HPLM + 10% dialyzed FBS, 0.19 µM
[7] = HPLM + 10% dialyzed FBS, 0.569 µM
[8] = HPLM + 10% dialyzed FBS, 1.71 µM
[9] = HPLM + 10% dialyzed FBS, 5.12 µM
[10] = HPLM + 10% dialyzed FBS, 15.4 µM
[11] = HPLM + 10% dialyzed FBS, 46.1 µM
[12] = RPMI 5 mM glucose + 10% FBS, 0.000781 µM
[13] = RPMI 5 mM glucose + 10% FBS, 0.00234 µM
[14] = RPMI 5 mM glucose + 10% FBS, 0.00702 µM
[15] = RPMI 5 mM glucose + 10% FBS, 0.0211 µM
[16] = RPMI 5 mM glucose + 10% FBS, 0.0632 µM
[17] = RPMI 5 mM glucose + 10% FBS, 0.19 µM
[18] = RPMI 5 mM glucose + 10% FBS, 0.569 µM
[19] = RPMI 5 mM glucose + 10% FBS, 1.71 µM
[20] = RPMI 5 mM glucose + 10% FBS, 5.12 µM
[21] = RPMI 5 mM glucose + 10% FBS, 15.4 µM
[22] = RPMI 5 mM glucose + 10% FBS, 46.1 µM
[23] = RPMI 5 mM glucose + 10% dialyzed FBS, 0.000781 µM
[24] = RPMI 5 mM glucose + 10% dialyzed FBS, 0.00234 µM
[25] = RPMI 5 mM glucose + 10% dialyzed FBS, 0.00702 µM
[26] = RPMI 5 mM glucose + 10% dialyzed FBS, 0.0211 µM
[27] = RPMI 5 mM glucose + 10% dialyzed FBS, 0.0632 µM
[28] = RPMI 5 mM glucose + 10% dialyzed FBS, 0.19 µM
[29] = RPMI 5 mM glucose + 10% dialyzed FBS, 0.569 µM
[30] = RPMI 5 mM glucose + 10% dialyzed FBS, 1.71 µM
[31] = RPMI 5 mM glucose + 10% dialyzed FBS, 5.12 µM
[32] = RPMI 5 mM glucose + 10% dialyzed FBS, 15.4 µM
[33] = RPMI 5 mM glucose + 10% dialyzed FBS, 46.1 µM

Structure (SMILES)	cell viability [1]	cell viability [2]	cell viability [3]	cell viability [4]	cell viability [5]	cell viability [6]	cell viability [7]	cell viability [8]	cell viability [9]	cell viability [10]	cell viability [11]	cell viability [12]	cell viability [13]	cell viability [14]	cell viability [15]	cell viability [16]	cell viability [17]	cell viability [18]	cell viability [19]	cell viability [20]	cell viability [21]	cell viability [22]	cell viability [23]	cell viability [24]	cell viability [25]	cell viability [26]	cell viability [27]	cell viability [28]	cell viability [29]	cell viability [30]	cell viability [31]	cell viability [32]	cell viability [33]
CN(C)[C@H]\1[C@@H]2C[C@H]3C(=C(O)\[C@]2(O)C(=O)\C(=C1O)C(N)=O)/C(=O)C4=C(O)C=CC=C4[C@@]3(C)O	104%	111%	104%	109%	111%	106%	120%	95.1%	121%	97.1%	99.6%	117%	124%	118%	125%	108%	102%	119%	110%	102%	104%	106%	104%	116%	112%	115%	112%	102%	110%	95%	110%	101%	93.4%
CC(C)NC[C@@H](C(=O)N1CCN(c2ncnc3c2[C@H](C)C[C@H]3O)CC1)c1ccc(Cl)cc1	115%	115%	119%	117%	109%	103%	109%	110%	79%	51.4%	18.6%	109%	121%	109%	100%	111%	109%	107%	105%	102%	73.8%	47.8%	124%	89.2%	115%	100%	103%	100%	108%	87.8%	81.6%	57.6%	43.1%
C[S+]([O-])(=O)C1=CC=C(C=C1)C/2=C(/C(=O)OC2)C3=CC=CC=C3												106%	110%	118%	109%	120%	115%	118%	119%	114%	108%	123%	107%	118%	106%	111%	121%	118%	123%	120%	108%	131%	129%
C=C(C)[C@H]1Cc2c(ccc3c2O[C@@H]2COc4cc(OC)c(OC)cc4[C@@H]2C3=O)O1	103%	102%	120%	110%	124%	116%	107%	89.2%	52.6%	37.3%	28.8%	105%	118%	105%	106%	109%	102%	102%	102%	63.8%	23.9%	20.4%	99.3%	101%	98.4%	99.8%	104%	104%	87.8%	98.7%	81.5%	29.5%	24.1%
CC[C@H](C)[N]1C=C(C)C2=C1C=C(C=C2C(=O)NC\C3=C(C)\C=C(\C)NC3=O)C4=CC=C(N=C4)N5CCNCC5	112%	108%	125%	131%	130%	129%	124%	104%	127%	122%	82.3%	105%	108%	121%	123%	122%	115%	126%	115%	128%	113%	102%	116%	125%	124%	127%	128%	123%	137%	138%	148%	118%	96.4%
C=C[C@H]1CN2CC[C@H]1C[C@H]2[C@H](O)c1ccnc2ccc(OC)cc12	116%	89.2%	96.3%	109%	105%	98.4%	115%	96.4%	112%	101%	86.8%	86.5%	87.5%	84.3%	87.8%	103%	97.9%	98.7%	103%	99.5%	97.6%	76.4%	92.3%	103%	98.9%	96.1%	104%	108%	113%	105%	106%	105%	68.8%
C[N]1C=C(C2=C1C=CC=C2)\C3=C(\C(=O)NC3=O)C4=C5CC(CN)CC[N]5C6=C4C=CC=C6 (centres undefined)	94.9%	118%	115%	101%	109%	120%	115%	110%	113%	90%	37.4%	88.5%	104%	94.1%	97.8%	102%	100%	93.5%	95.8%	96.8%	81.3%	44.1%	92.8%	100%	106%	114%	105%	111%	105%	100%	104%	88%	63.4%
CC/1=C(/N2[C@H](SC1)[C@H](NC(=O)[C@H](N)\C3=C\C\C=C/C3)C2=O)C(O)=O	97.5%	110%	103%	109%	108%	121%	123%	135%	121%	115%	121%	110%	119%	114%	118%	119%	124%	109%	117%	129%	125%	127%	102%	109%	104%	124%	115%	108%	114%	121%	126%	109%	118%
CC(C)C(=O)Oc1ccc(CO)cc1[C@H](CCN(C(C)C)C(C)C)c1ccccc1	99.1%	104%	85.7%	87%	85.6%	91.8%	93.3%	88.9%	78.9%	81.1%	71.7%	85.2%	78.8%	88.8%	93.3%	82.5%	76%	80%	83.4%	85.2%	79.1%	78.4%	78.3%	79.6%	86.4%	78.9%	73.8%	79.2%	73.5%	80.8%	77.4%	82.5%	79.1%
Cc1cc2c(F)c(Oc3ncnn4cc(OC[C@@H](C)O)c(C)c34)ccc2[nH]1	107%	87.6%	103%	103%	97.5%	90.4%	99.2%	101%	98.4%	88.9%	69.6%	86.5%	103%	101%	105%	98.2%	98.1%	94.1%	88.6%	88.8%	97%	83.6%	88.5%	104%	102%	92%	90.3%	100%	98.7%	84.9%	109%	79.8%	67.1%
O=C(O)C1=NC(C(=O)O)CC(/C=C/N2c3cc(O)c(OC4OC(CO)C(O)C(O)C4O)cc3CC2C(=O)O)=C1 (centres undefined)	111%	111%	115%	103%	117%	106%	99.1%	109%	98.7%	107%	109%	86.4%	86.7%	94.2%	99.4%	119%	108%	98.4%	93.5%	94%	90.6%	104%	104%	101%	101%	113%	104%	101%	94.2%	98.2%	92.4%	104%	117%
CCC[C@H]1C[C@H](C(=O)N[C@@H]([C@@H]2O[C@@H](SC)[C@@H](O)[C@@H](O)[C@H]2O)[C@H](C)Cl)N(C)C1	102%	117%	106%	119%	128%	121%	131%	118%	124%	137%	114%	119%	115%	108%	118%	112%	134%	123%	116%	129%	126%	143%	112%	117%	120%	113%	114%	119%	122%	109%	129%	127%	130%
COc1ccc(C(C)=O)c(O)c1	115%	114%	109%	121%	111%	93.7%	98%	45.9%	41.4%	23.9%	26.2%	116%	111%	119%	118%	116%	127%	112%	56.6%	64.8%	20.1%	22.6%	111%	115%	105%	105%	124%	129%	123%	75.6%	59.9%	25.7%	24.2%
OC[C@H]1OCC(O1)[N@@]2C=CC(N)=NC2=O (some centres undefined)	115%	127%	101%	105%	117%	113%	131%	86.7%	121%	126%	94.8%	114%	123%	118%	116%	114%	127%	118%	113%	122%	108%	108%	103%	133%	112%	109%	125%	111%	117%	113%	120%	113%	113%
FC1=CC=C(SC/2=N/N3\C=N/C(=O)/C(=C3/C=C2)C4=C(Cl)C=CC=C4Cl)C(=C1)F	99%	108%	108%	114%	112%	118%	119%	107%	101%	99.2%	50.2%	98.8%	93.2%	104%	118%	104%	115%	98.3%	105%	95.3%	104%	43.7%	98.7%	114%	105%	103%	101%	106%	108%	110%	108%	99%	72.5%
